Source: patent US12660821B2, “Herbicide compositions with epyrifenacil and 2,4-D triethanolamine salt with improved properties” (MONSANTO TECHNOLOGY LLC, priority 2020, dated 2026)

Assay: Partition coefficient of compound (A) between organic solvent and water (procedure G1, HPLC)
Type: physicochemical
Conditions: approx. 25° C.
Method: G1: General Experimental Procedure to Determine the Partition Coefficient of Compound (A) in Solvents
The experimental procedure for the respective solvent is as follows: (1) A solution of 10 g of compound (A) is prepared in 90 g of the respective solvent; (2) An aliquot of 10 g of the solution obtained in step (1) is added to 90 g of water in a glass bottle, which is shaken on a mechanical shaker for 4 hours at ambient temperature (approximately 25° C.); (3) The contents of the glass bottle are permitted to phase separate for 4 days at ambient temperature (approximately 25° C.); and (4) Subsamples of the resulting oil and water phases are taken and analyzed by HPLC to determine the concentrations of compound (A) in oil (Co) and water phases (Cw) respectively. The subsamples are typically centrifuged before HPLC analysis to remove traces of organic solvent from the water phase.
The partition coefficient, analogous to the octanol-water partition coefficient, P, is calculated as Co/Cw. The partition coefficient is conveniently expressed as a logarithm […]=log Co/Cw=P.
The ratio of determined concentrations of compound (A) in the solvent phase and the water phase typically is very large. […]

CCOC(=O)COc1ncccc1Oc1cc(-n2c(=O)cc(C(F)(F)F)n(C)c2=O)c(F)cc1Cl [compound (A), ethyl [3-[2-chloro-4-fluoro-5-(1-methyl-6-trifluoromethyl-2,4-dioxo-1,2,3,4-tetrahydropyrimidin-3-yl)phenoxy]-2-pyridyloxy]acetate]
compound (A) in the water phase (Aromatic 200 ND as organic solvent): undetectable | compound (A) in the water phase (acetophenone as organic solvent): undetectable
